Measured values published in patent publication US11377442B2, “Small molecule agonists and antagonists of NR2F6 activity” (ZANDER THERAPEUTICS, INC., priority 2016, dated 2022).
Like-named read-outs stand apart in the source and are kept apart here.

What was measured:
Format in all cases: cell-based
Renilla [1] = experiment: Renilla signal in NR2F6 agonist screening, cmpd/DMSO; conditions: Renilla
HEK293 pGL4 = experiment: Firefly_pGL signal, cmpd/DMSO (pGL4 control cells); conditions: Homo sapiens
NR2F6 = target: T1, NR2F6 (Homo sapiens, UniProt P10588); experiment: NR2F6 agonist screening, Firefly signal cmpd/DMSO
T1 construct: expressed in transfected cells; also transient transfection
T1 sequence (P10588 1-404): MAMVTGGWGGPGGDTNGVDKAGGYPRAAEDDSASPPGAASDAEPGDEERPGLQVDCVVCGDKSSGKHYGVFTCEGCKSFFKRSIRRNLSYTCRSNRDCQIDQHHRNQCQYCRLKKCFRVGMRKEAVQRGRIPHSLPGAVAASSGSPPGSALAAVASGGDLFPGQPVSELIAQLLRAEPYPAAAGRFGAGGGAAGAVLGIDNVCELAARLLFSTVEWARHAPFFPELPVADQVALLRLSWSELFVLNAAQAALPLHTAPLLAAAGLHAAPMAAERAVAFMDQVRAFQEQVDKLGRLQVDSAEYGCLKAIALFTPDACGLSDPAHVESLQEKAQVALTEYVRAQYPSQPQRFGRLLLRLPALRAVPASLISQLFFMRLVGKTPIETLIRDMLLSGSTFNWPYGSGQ

Renilla [2] = experiment: Renilla signal, LBD, cmpd/DMSO (NR2F6 LBD transfected cells)
NR2F6 LBD = target: T2, NR2F6 LBD (Homo sapiens, UniProt P10588); experiment: NR2F6 LBD transient transfection
T2 construct: expressed in transfected cells
T2 sequence (P10588 165-393 limits assumed): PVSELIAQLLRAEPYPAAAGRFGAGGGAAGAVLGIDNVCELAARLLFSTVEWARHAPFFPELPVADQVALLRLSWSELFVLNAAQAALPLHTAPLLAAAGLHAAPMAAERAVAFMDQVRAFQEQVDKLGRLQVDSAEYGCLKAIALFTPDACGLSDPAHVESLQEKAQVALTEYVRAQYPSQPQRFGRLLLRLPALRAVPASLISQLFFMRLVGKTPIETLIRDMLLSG
Method in brief: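 LBD-transfected cells treated at 40, 10, 2 and 0.5 μM (4 replicates); cytotoxicity measured in parallel, normalized to DMSO (0%) and zero signal (100%). Higher concentrations excluded where signal loss reflected toxicity.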

[3] = read-out: Renilla F4, cmpd/DMSO (mean)
[4] = F4, 1% FBS, read-out: Renilla, F4, 1% FBS, cmpd/DMSO (mean)
[5] = F4, 10% FBS, read-out: Renilla, F4, 10% FBS, cmpd/DMSO (mean)
[6] = HEK293, 0.5 uM, read-out: Firefly pGL4, cmpd/DMSO (mean)
[7] = HEK293, 2 uM, read-out: Firefly pGL4, cmpd/DMSO (mean)
[8] = HEK293, 10 uM, read-out: Firefly pGL4, cmpd/DMSO (mean)
[9] = HEK293, 40 uM, read-out: Firefly pGL4, cmpd/DMSO (mean)
[10] = HEK293, pGL4, 1% FBS, 0.5 uM, read-out: Firefly, pGL4, 1% FBS, cmpd/DMSO (mean)
[11] = HEK293, pGL4, 1% FBS, 2 uM, read-out: Firefly, pGL4, 1% FBS, cmpd/DMSO (mean)
[12] = HEK293, pGL4, 1% FBS, 10 uM, read-out: Firefly, pGL4, 1% FBS, cmpd/DMSO (mean)
[13] = HEK293, pGL4, 1% FBS, 40 uM, read-out: Firefly, pGL4, 1% FBS, cmpd/DMSO (mean)
[14] = HEK293, pGL4, 10% FBS, 0.5 uM, read-out: Firefly, pGL4, 10% FBS, cmpd/DMSO (mean)
[15] = HEK293, pGL4, 10% FBS, 2 uM, read-out: Firefly, pGL4, 10% FBS, cmpd/DMSO (mean)
[16] = HEK293, pGL4, 10% FBS, 10 uM, read-out: Firefly, pGL4, 10% FBS, cmpd/DMSO (mean)
[17] = HEK293, pGL4, 10% FBS, 40 uM, read-out: Firefly, pGL4, 10% FBS, cmpd/DMSO (mean)

## O=S1(=O)C[C@H](NCCCc2ccccc2)[C@@H](S(=O)(=O)c2ccc(Cl)cc2)C1 [Compound D137]
Renilla [1]; [3]
  fold induction at 0.5 µM: 1.1
  fold induction at 2 µM: 1.1
  fold induction at 10 µM: 1.8
  fold induction at 40 µM: 2.6
Renilla [1]; [4]
  fold induction at 0.5 µM: 1
  fold induction at 2 µM: 1.3
  fold induction at 10 µM: 2.1
  fold induction at 40 µM: 3.5
Renilla [1]; [5]
  fold induction at 0.5 µM: 1.2
  fold induction at 2 µM: 1.4
  fold induction at 10 µM: 2.1
  fold induction at 40 µM: 4
HEK293 pGL4; [6]
  fold induction at 0.5 µM: 0.8
HEK293 pGL4; [7]
  fold induction at 2 µM: 1.2
HEK293 pGL4; [8]
  fold induction at 10 µM: 1.5
HEK293 pGL4; [9]
  fold induction at 40 µM: 1.5
HEK293 pGL4; [10]
  fold induction at 0.5 µM: 1
HEK293 pGL4; [11]
  fold induction at 2 µM: 1
HEK293 pGL4; [12]
  fold induction at 10 µM: 1.5
HEK293 pGL4; [13]
  fold induction at 40 µM: 1.5
HEK293 pGL4; [14]
  fold induction at 0.5 µM: 0.7
HEK293 pGL4; [15]
  fold induction at 2 µM: 1.1
HEK293 pGL4; [16]
  fold induction at 10 µM: 2.1
HEK293 pGL4; [17]
  fold induction at 40 µM: 4.3
NR2F6; 0.5 uM
  Firefly F4, cmpd/DMSO (mean): 1.1
NR2F6; 2 uM
  Firefly F4, cmpd/DMSO (mean): 1.3
NR2F6; 10 uM
  Firefly F4, cmpd/DMSO (mean): 2.0
NR2F6; 40 uM
  Firefly F4, cmpd/DMSO (mean): 0.6
NR2F6; 1% FBS, 10 uM
  F4, Firefly/Renilla for S/B(F4) > 3: 1.9
  Firefly, F4/pGL4 for S/B(F4) > 3: 2.7
  Firefly, F4, 1% FBS, cmpd/DMSO (mean): 3.9
NR2F6; 1% FBS, 40 uM
  F4, Firefly/Renilla for S/B(F4) > 3: 1.0
  Firefly, F4/pGL4 for S/B(F4) > 3: 2.4
  Firefly, F4, 1% FBS, cmpd/DMSO (mean): 3.4
NR2F6; 10% FBS, 10 uM
  F4, Firefly/Renilla for S/B(F4) > 3: 2.2
  Firefly, F4/pGL4 for S/B(F4) > 3: 2.2
  Firefly, F4, 10% FBS, cmpd/DMSO (mean): 4.6
NR2F6; 10% FBS, 40 uM
  F4, Firefly/Renilla for S/B(F4) > 3: 3.3
  Firefly, F4/pGL4 for S/B(F4) > 3: 3.1
  Firefly, F4, 10% FBS, cmpd/DMSO (mean): 13
NR2F6; 1% FBS, 0.5 uM
  Firefly, F4, 1% FBS, cmpd/DMSO (mean): 1.2
NR2F6; 1% FBS, 2 uM
  Firefly, F4, 1% FBS, cmpd/DMSO (mean): 2.2
NR2F6; 10% FBS, 0.5 uM
  Firefly, F4, 10% FBS, cmpd/DMSO (mean): 0.9
NR2F6; 10% FBS, 2 uM
  Firefly, F4, 10% FBS, cmpd/DMSO (mean): 1.4
Renilla [2]; 0.5 uM
  Renilla LBD, cmpd/DMSO (mean): 1.0
Renilla [2]; 2 uM
  Renilla LBD, cmpd/DMSO (mean): 1.0
Renilla [2]; 10 uM
  Renilla LBD, cmpd/DMSO (mean): 0.8
Renilla [2]; 40 uM
  Renilla LBD, cmpd/DMSO (mean): 0.4
NR2F6 LBD; 0.5 uM
  Firefly LBD, cmpd/DMSO (mean): 1.1
NR2F6 LBD; 2 uM
  Firefly LBD, cmpd/DMSO (mean): 2.0
NR2F6 LBD; 10 uM
  Firefly LBD, cmpd/DMSO (mean): 3.2
NR2F6 LBD; 40 uM
  Firefly LBD, cmpd/DMSO (mean): 0.4

## CC(C)OCCCN[C@H]1CS(=O)(=O)C[C@@H]1S(=O)(=O)c1ccc(Cl)cc1 [Compound D138]
Renilla [1]; [3]
  fold induction at 0.5 µM: 0.8
  fold induction at 2 µM: 1
  fold induction at 10 µM: 1.2
  fold induction at 40 µM: 2.3
Renilla [1]; [4]
  fold induction at 0.5 µM: 1.3
  fold induction at 2 µM: 1.4
  fold induction at 10 µM: 1.9
  fold induction at 40 µM: 2.9
Renilla [1]; [5]
  fold induction at 0.5 µM: 1.4
  fold induction at 2 µM: 1.4
  fold induction at 10 µM: 2
  fold induction at 40 µM: 3.6
HEK293 pGL4; [6]
  fold induction at 0.5 µM: 0.9
HEK293 pGL4; [7]
  fold induction at 2 µM: 0.9
HEK293 pGL4; [8]
  fold induction at 10 µM: 1.5
HEK293 pGL4; [9]
  fold induction at 40 µM: 1.5
HEK293 pGL4; [10]
  fold induction at 0.5 µM: 1
HEK293 pGL4; [11]
  fold induction at 2 µM: 1
HEK293 pGL4; [12]
  fold induction at 10 µM: 1.6
HEK293 pGL4; [13]
  fold induction at 40 µM: 1.7
HEK293 pGL4; [14]
  fold induction at 0.5 µM: 1.1
HEK293 pGL4; [15]
  fold induction at 2 µM: 1
HEK293 pGL4; [16]
  fold induction at 10 µM: 1.7
HEK293 pGL4; [17]
  fold induction at 40 µM: 3.6
NR2F6; 0.5 uM
  Firefly F4, cmpd/DMSO (mean): 1.0
NR2F6; 2 uM
  Firefly F4, cmpd/DMSO (mean): 1.1
NR2F6; 10 uM
  Firefly F4, cmpd/DMSO (mean): 2.6
NR2F6; 40 uM
  Firefly F4, cmpd/DMSO (mean): 1.7
NR2F6; 1% FBS, 10 uM
  F4, Firefly/Renilla for S/B(F4) > 3: 2.2
  Firefly, F4/pGL4 for S/B(F4) > 3: 2.7
  Firefly, F4, 1% FBS, cmpd/DMSO (mean): 4.2
NR2F6; 1% FBS, 40 uM
  F4, Firefly/Renilla for S/B(F4) > 3: 1.1
  Firefly, F4/pGL4 for S/B(F4) > 3: 1.9
  Firefly, F4, 1% FBS, cmpd/DMSO (mean): 3.3
NR2F6; 10% FBS, 10 uM
  F4, Firefly/Renilla for S/B(F4) > 3: 1.6
  Firefly, F4/pGL4 for S/B(F4) > 3: 1.8
  Firefly, F4, 10% FBS, cmpd/DMSO (mean): 3.1
NR2F6; 10% FBS, 40 uM
  F4, Firefly/Renilla for S/B(F4) > 3: 3.2
  Firefly, F4/pGL4 for S/B(F4) > 3: 3.2
  Firefly, F4, 10% FBS, cmpd/DMSO (mean): 12
NR2F6; 1% FBS, 0.5 uM
  Firefly, F4, 1% FBS, cmpd/DMSO (mean): 0.8
NR2F6; 1% FBS, 2 uM
  Firefly, F4, 1% FBS, cmpd/DMSO (mean): 1.9
NR2F6; 10% FBS, 0.5 uM
  Firefly, F4, 10% FBS, cmpd/DMSO (mean): 1.8
NR2F6; 10% FBS, 2 uM
  Firefly, F4, 10% FBS, cmpd/DMSO (mean): 1.3
Renilla [2]; 0.5 uM
  Renilla LBD, cmpd/DMSO (mean): 0.9
Renilla [2]; 2 uM
  Renilla LBD, cmpd/DMSO (mean): 1.1
Renilla [2]; 10 uM
  Renilla LBD, cmpd/DMSO (mean): 0.9
Renilla [2]; 40 uM
  Renilla LBD, cmpd/DMSO (mean): 0.3
NR2F6 LBD; 0.5 uM
  Firefly LBD, cmpd/DMSO (mean): 1.3
NR2F6 LBD; 2 uM
  Firefly LBD, cmpd/DMSO (mean): 1.8
NR2F6 LBD; 10 uM
  Firefly LBD, cmpd/DMSO (mean): 3.7
NR2F6 LBD; 40 uM
  Firefly LBD, cmpd/DMSO (mean): 0.4
